# Measurements published in PubChem BioAssay AID1259411 (Chemical Carcinogenesis Research Information System (CCRIS), 2018).
# The source made the active and inactive calls. No rule for the calls is given here.
# Test system: rodent carcinogenicity bioassays, tumor incidence
# Test: CCRIS carcinogenicity studies
# Outline: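 Archive of carcinogenicity, mutagenicity, tumor promotion and tumor inhibition results drawn from journals, NCI reports and other sources, expert-reviewed; covers 1985-2011 and is no longer updated.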
smiles,measurement,setting,value
OC[C@H]1O[C@@H]2O[C@H]3[C@H](O)[C@@H](O)[C@@H](O[C@H]4[C@H](O)[C@@H](O)[C@@H](O[C@H]5[C@H](O)[C@@H](O)[C@@H](O[C@H]6[C@H](O)[C@@H](O)[C@@H](O[C@H]7[C@H](O)[C@@H](O)[C@@H](O[C@H]8[C@H](O)[C@@H](O)[C@@H](O[C@H]1[C@H](O)[C@H]2O)O[C@@H]8CO)O[C@@H]7CO)O[C@@H]6CO)O[C@@H]5CO)O[C@@H]4CO)O[C@@H]3CO,carcinogen call,"Species: MOUSE, Strain/Sex: CD-1/FEMALE, Route: ORAL, Dose: 0, 25, 75, 225, 675 MG/KG/D IN DIET FOR 105 WK (STUDY DURATION: 105 WK), Dose: 0, 25, 75, 225, 675 MG/KG/D IN DIET FOR 105 WK (STUDY DURATION: 105 WK)",inactive; negative
same,carcinogen call,"Species: MOUSE, Strain/Sex: CD-1/MALE, Route: ORAL, Dose: 0, 25, 75, 225, 675 MG/KG/D IN DIET FOR 93 WK (STUDY DURATION: 93 WK), Dose: 0, 25, 75, 225, 675 MG/KG/D IN DIET FOR 93 WK (STUDY DURATION: 93 WK)",inactive; negative
same,carcinogen call,"Species: RAT, Strain/Sex: F344/FEMALE, Route: ORAL, Dose: 0, 2.5, 5% IN DIET FOR 104 WK (STUDY DURATION: 109 WK), Dose: 0, 2.5, 5% IN DIET FOR 104 WK (STUDY DURATION: 109 WK)",inactive; negative
same,carcinogen call,"Species: RAT, Strain/Sex: F344/FEMALE, Route: ORAL, Dose: 0, 25, 75, 225, 675 MG/KG/D IN DIET FOR 130 WK (STUDY DURATION: 130 WK), Dose: 0, 25, 75, 225, 675 MG/KG/D IN DIET FOR 130 WK (STUDY DURATION: 130 WK)",inactive; negative
same,carcinogen call,"Species: RAT, Strain/Sex: F344/MALE, Route: ORAL, Dose: 0, 2.5, 5% IN DIET FOR 104 WK (STUDY DURATION: 109 WK), Dose: 0, 2.5, 5% IN DIET FOR 104 WK (STUDY DURATION: 109 WK)",inactive; negative
same,carcinogen call,"Species: RAT, Strain/Sex: F344/MALE, Route: ORAL, Dose: 0, 25, 75, 225, 675 MG/KG/D IN DIET FOR 122 WK (STUDY DURATION: 122 WK), Dose: 0, 25, 75, 225, 675 MG/KG/D IN DIET FOR 122 WK (STUDY DURATION: 122 WK)",inactive; negative
CCCCN(C)N=O,carcinogen call,"Species: HAMSTER, Strain/Sex: SYRIAN/FEMALE, Route: GAVAGE, Dose: 0, 2.5, 5 MG/KG 1/WK FOR 23-30 WK (TOTAL DOSE: 0; 0.65; 1.0 MMOL) (STUDY DURATION: LIFETIME), Dose: 0, 2.5, 5 MG/KG 1/WK FOR 23-30 WK (TOTAL DOSE: 0; 0.65; 1.0 MMOL) (STUDY DURATION: LIFETIME), Tumor Site: Type of Lesion: LIVER: HEPATOCELLULAR ADENOMA, LUNG: ALVEOLAR/BRONCHIAL ADENOMA, NASAL MUCOSA: CARCINOMA, ADENOMA, FORESTOMACH: SQUAMOUS, Tumor Site: Type of Lesion: LIVER: HEPATOCELLULAR ADENOMA, LUNG: ALVEOLAR/BRONCHIAL ADENOMA, NASAL MUCOSA: CARCINOMA, ADENOMA, FORESTOMACH: SQUAMOUS",active; positive
same,carcinogen call,"Species: HAMSTER, Strain/Sex: SYRIAN/MALE, Route: GAVAGE, Dose: 0, 2.5, 5 MG/KG 1/WK FOR 23-30 WK (TOTAL DOSE: 0; 0.65; 1.0 MMOL) (STUDY DURATION: LIFETIME), Dose: 0, 2.5, 5 MG/KG 1/WK FOR 23-30 WK (TOTAL DOSE: 0; 0.65; 1.0 MMOL) (STUDY DURATION: LIFETIME), Tumor Site: Type of Lesion: LIVER: HEPATOCELLULAR ADENOMA, HEMANGIOSARCOMA, LUNG: ALVEOLAR/BRONCHIAL ADENOMA, NASAL MUCOSA: CARCINOMA, ADENOMA, FORE, Tumor Site: Type of Lesion: LIVER: HEPATOCELLULAR ADENOMA, HEMANGIOSARCOMA, LUNG: ALVEOLAR/BRONCHIAL ADENOMA, NASAL MUCOSA: CARCINOMA, ADENOMA, FORE",active; positive
same,carcinogen call,"Species: RAT, Strain/Sex: F344/FEMALE, Route: INTRAVESICULAR, Dose: 0, 3 MG IN 0.2 ML ETHANOL: DEIONIZED WATER (1:3) 2/WK FOR 17 WK (TOTAL DOSE 0.9 MMOL) (STUDY DURATION: LIFESPAN), Tumor Site: Type of Lesion: ESOPHAGUS: TUMOR, LIVER: HEMANGIOSARCOMA",active; positive
O=[N+]([O-])c1cc([As](=O)(O)O)ccc1O,carcinogen call,"Species: MOUSE, Strain/Sex: B6C3F1/FEMALE, Route: ORAL, Dose: 0, 100, 200 PPM IN FEED FOR 103 WK (STUDY DURATION: 105 WK), Dose: 0, 100, 200 PPM IN FEED FOR 103 WK (STUDY DURATION: 105 WK)",inactive; negative
same,carcinogen call,"Species: MOUSE, Strain/Sex: B6C3F1/MALE, Route: ORAL, Dose: 0, 100, 200 PPM IN FEED FOR 103 WK (STUDY DURATION: 105 WK), Dose: 0, 100, 200 PPM IN FEED FOR 103 WK (STUDY DURATION: 105 WK)",inactive; negative
same,carcinogen call,"Species: RAT, Strain/Sex: F344/FEMALE, Route: ORAL, Dose: 0, 50, 100 PPM IN FEED FOR 103 WK (STUDY DURATION: 104 WK), Dose: 0, 50, 100 PPM IN FEED FOR 103 WK (STUDY DURATION: 104 WK)",inactive; negative
same,carcinogen call,"Species: RAT, Strain/Sex: F344/MALE, Route: ORAL, Dose: 0, 50, 100 PPM IN FEED FOR 103 WK (STUDY DURATION: 104 WK), Dose: 0, 50, 100 PPM IN FEED FOR 103 WK (STUDY DURATION: 104 WK), Tumor Site: Type of Lesion: EXOCRINE PANCREAS: ADENOMA",equivocal
CC(=O)N1C(C)CN(N=O)CC1C (stereo unspecified),carcinogen call,"Species: RAT, Strain/Sex: F344/FEMALE, Route: ORAL, Dose: 0, 130 MG/L IN DRINKING WATER 5 D/WK FOR 30 WK, STUDY DURATION: 30-40 WK, Dose: 0, 130 MG/L IN DRINKING WATER 5 D/WK FOR 30 WK, STUDY DURATION: 30-40 WK, Tumor Site: Type of Lesion: ESOPHAGUS: CARCINOMA, TONGUE: PAPILLOMA OR CARCINOMA",active; positive
CCCCC1C(=O)N(c2ccccc2)N(c2ccccc2)C1=O,carcinogen call,"Species: MOUSE, Strain/Sex: B6C3F1/FEMALE, Route: GAVAGE, Dose: 0, 150, 300 MG/KG IN CORN OIL 5 D/WK FOR 103 WK (STUDY DURATION: 107 WK), Dose: 0, 150, 300 MG/KG IN CORN OIL 5 D/WK FOR 103 WK (STUDY DURATION: 107 WK)",inactive; negative
same,carcinogen call,"Species: MOUSE, Strain/Sex: B6C3F1/MALE, Route: GAVAGE, Dose: 0, 150, 300 MG/KG IN CORN OIL 5 D/WK FOR 103 WK (STUDY DURATION: 107 WK), Dose: 0, 150, 300 MG/KG IN CORN OIL 5 D/WK FOR 103 WK (STUDY DURATION: 107 WK), Tumor Site: Type of Lesion: LIVER: HEPATOCELLULAR ADENOMA, HEPATOCELLULAR ADENOMA OR CARCINOMA",active; positive
same,carcinogen call,"Species: RAT, Strain/Sex: F344/FEMALE, Route: GAVAGE, Dose: 0, 50, 100 MG/KG IN CORN OIL 5 D/WK FOR 103 WK (STUDY DURATION: 103 WK), Dose: 0, 50, 100 MG/KG IN CORN OIL 5 D/WK FOR 103 WK (STUDY DURATION: 103 WK), Tumor Site: Type of Lesion: KIDNEY: TRANSITIONAL EPITHELIAL CARCINOMA, TUBULAR CELL ADENOMA",active; positive
same,carcinogen call,"Species: RAT, Strain/Sex: F344/MALE, Route: GAVAGE, Dose: 0, 50, 100 MG/KG IN CORN OIL 5 D/WK FOR 103 WK (STUDY DURATION: 103 WK), Dose: 0, 50, 100 MG/KG IN CORN OIL 5 D/WK FOR 103 WK (STUDY DURATION: 103 WK), Tumor Site: Type of Lesion: KIDNEY: TUBULAR CELL ADENOMA, TUBULAR CELL ADENOMA OR CARCINOMA",equivocal
CC(=O)O[C@@H]1[C@@H](O)[C@H]2O[C@@H]3C=C(C)C(=O)[C@@H](O)[C@]3(CO)[C@]1(C)[C@]21CO1,carcinogen call,"Species: MOUSE, Strain/Sex: BDF1/FEMALE, Route: GAVAGE, Dose: 0, 3.5 MG/KG 1/4 WK FOR 1 YR (STUDY DURATION: 2 YR)",inactive; negative
same,carcinogen call,"Species: MOUSE, Strain/Sex: BDF1/FEMALE, Route: GAVAGE, Dose: 0, 3.5 MG/KG 1/8 WK FOR 1 YR (STUDY DURATION: 2 YR)",inactive; negative
CCCCCCCCCCCCCC(=O)ON(C(C)=O)c1ccc2c(c1)Cc1ccccc1-2,carcinogen call,"Species: RAT, Strain/Sex: F344/MALE, Route: SUBCUTANEOUS, Dose: 10.6 UMOL IN 0.2 ML DMSO-TRIOCTANOIN 1/WK FOR 6 WK, Tumor Site: Type of Lesion: INJECTION SITE: FIBROSARCOMA OR FIBROMYOSARCOMA OR FIBROLIPOSARCOMA",active; positive
